Molecules are shown by their SMILES.

These results are taken from US5873359A, “Methods and devices for treating pulmonary vasoconstriction and asthma” (The General Hospital Corporation, priority 1994, dated 1999).

One series is described as follows: Stability of SNAP. It is filed as physicochemical. Particulars: crystals at 0° C., up to 120 days, absorbance at 595 nm. An excerpt: Alternatively, a mammal (in particular, a human) with or at risk of developing bronchoconstriction (e.g., asthma) or reversible pulmonary vasoconstriction may be treated with a therapeutically-effective amount of a nitric oxide-releasing compound. Known nitric oxide-releasing compounds (also referred to as nitric oxide-donor or nitric oxide-generating compounds) useful in the methods and devices of the invention can be divided into three categories: (a) nitroso or nitrosyl compounds (e.g., S-nitroso-N-acetylpenicillamine, S-nitroso-L-cysteine, and nitrosoguanidine) characterized by an --NO moiety that is spontaneously released or otherwise transferred from the compound under physiological conditions such as obtain in the lung; (b) compounds in which NO is a ligand on a transition metal complex, and as such is readily released or transferred from the compound under physiological conditions (e.g., nitroprusside, NO-ferredoxin, or an NO-heme complex); and (c) nitrogen-containing compounds which are metabolized by enzymes endogenous to the respiratory and/or vascular system to produce the NO radical (e.g., arginine, glyceryl trinitrate, isoamyl nitrite, inorganic nitrite, azide, and hydroxylamine). […]

The test system of series [1] is experimentally-elevated PA pressure. Nature of the series: SNAP inhalation in sheep with experimentally-elevated PA pressure. Type of series: in vivo. Particulars: inhalation 1.3 mg/kg. An excerpt: This method will provide a longer-lasting beneficial effect than briefly inhaling gaseous NO, as the deposited NO-releasing compound would slowly release NO over a relatively long period of time. Formulation and dosage of a selected NO-releasing compound can be determined without undue experimentation by one of ordinary skill in the art. As one example, a typical single inhaled dose of an NO-releasing compound such as S-nitroso-N-acetylpenicillamine (SNAP) or S-nitrosocysteine in dry powder form could range from 60 to 650 μg of the active compound (NO) per kg bodyweight, for approximately an hour of dilation.

Series [2] concerns methacholine bronchoconstriction. Kind of series: SNAP aerosol during methacholine bronchoconstriction. It is filed as in vivo, Hartley strain guinea pigs. To be noted: nebulized, 20 breaths, 5 guinea pigs (FIG. 16). As to the method: Male Hartley strain guinea pigs (300-440g body wt) were anesthetized with α-chloralose (50 mg/kg) and urethane (500 mg/kg) (Drazen et al., J. Appl. Physiol. 48:613-618, 1980). A tracheostomy was performed, and the animals were intubated with a tubing adaptor (ID 1.65 mm) and ventilated with a small animal ventilator (Harvard Apparatus, a division of Ealing Scientific, Natick, Mass.) at 8 ml/kg and 60 breaths/min. A jugular vein was cannulated for intravenous administration of drugs. The chest was opened by bilateral excision of a portion of the ribs anteriorly so that the lungs were exposed to atmospheric pressure (Shore and Drazen, J. Appl. Physiol. 67:2504-2511, 1989). A positive end expiratory pressure of 3-4 cmH2 O was provided.
Guinea pigs were then placed inside a plethysmograph (Amdur and Mead, Am. J. Physiol. 192:363-368, 1958), that was connected to a large reservoir containing copper mesh to maintain the plethysmograph isothermal. Plethysmograph pressure was measured with a differential pressure transducer (Celesco, Canoga Park, Calif.); the opposite side of this transducer was connected to a similar reservoir. Pressure at the airway opening was measured from a side tap in the tracheal canula. Transpulmonary pressure was measured with a differential pressure transducer (Celesco) as the difference between airway opening pressure and the pressure inside the plethysmograph. […]

The conditions of series [3]: cited from earlier work.

`CC(=O)N[C@H](C(=O)O)C(C)(C)SN=O` (racemic) [SNAP, S-nitroso-N-acetylpenicillamine]: the degradation on storage result in “Stability of SNAP” is on record as “without detectable degradation”. In addition, in series [1], the PA pressure entry is recorded as “prolonged reduction in PA pressure”. In series [2], the “duration of reduction of lung resistance” value is reported as “about 15 minutes”; the lung resistance result was “prompt and profound reduction of lung resistance”. In addition, the “stability of solid form” value in series [3] (solid form) is listed as “stable in its solid form”. For the same compound, the “decomposition to release NO” value in series [3] (under physiological conditions) is listed as “readily decomposes to release NO”.
